26 molecules from patent US10975056B2 (GlaxoSmithKline Intellectual Property Development Limited, priority 2016, dated 2021) can be followed below.

The target of one test is DNMT1 (Homo sapiens, UniProt P26358). Description: DNMT1 biochemical activity, breaklight assay and/or SPA assay.
The subject of test [1] is erythroid progenitor cells (EPCs). Description: Fetal hemoglobin (HbF) ELISA in day 7 erythroid progenitor cells.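 Also: for fetal hemoglobin induction normalized to vehicle-treated cells.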 As to conditions: Homo sapiens, Erythroid progenitor cell, HbF ELISA, day 7 EPCs, 5 days; read-out: EPC ELISA (pEC50 category) (converted). Type of test: cell-based, human. The gist of the method: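 CD34+-derived EPCs, 1,000 cells/well, rhEPO 3 U/mL; Compound A 22-pt series, […]; 5 d, 37° C, 5% CO2. Freeze-thaw lysis, anti-HbF capture + HRP anti-HbF, TMB, OD450. Normalized to DMSO wells.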

Setting [2] is: binned activity in either the breaklight or the SPA assay, read-out: DNMT1 BioChemical (pIC50 category) (converted).
[3] abbreviates: binned activity in either the breaklight or the SPA assay.
The mark [4] stands for this setting: breaklight assay and/or SPA assay, repeated experimental runs, read-out: average pIC50 against DNMT1 (converted).

Values joined by “and” are separate entries in the source; they are usually repeats but may differ in a detail not shown here. Identical values can stand only once. Counter-ions that a name gives are not always drawn. Like-named read-outs stand apart in the source and are kept apart here. A value given as a limit tells only on which side of the number the result lay.

DNMT1, sequence (P26358 whole entry, looked up): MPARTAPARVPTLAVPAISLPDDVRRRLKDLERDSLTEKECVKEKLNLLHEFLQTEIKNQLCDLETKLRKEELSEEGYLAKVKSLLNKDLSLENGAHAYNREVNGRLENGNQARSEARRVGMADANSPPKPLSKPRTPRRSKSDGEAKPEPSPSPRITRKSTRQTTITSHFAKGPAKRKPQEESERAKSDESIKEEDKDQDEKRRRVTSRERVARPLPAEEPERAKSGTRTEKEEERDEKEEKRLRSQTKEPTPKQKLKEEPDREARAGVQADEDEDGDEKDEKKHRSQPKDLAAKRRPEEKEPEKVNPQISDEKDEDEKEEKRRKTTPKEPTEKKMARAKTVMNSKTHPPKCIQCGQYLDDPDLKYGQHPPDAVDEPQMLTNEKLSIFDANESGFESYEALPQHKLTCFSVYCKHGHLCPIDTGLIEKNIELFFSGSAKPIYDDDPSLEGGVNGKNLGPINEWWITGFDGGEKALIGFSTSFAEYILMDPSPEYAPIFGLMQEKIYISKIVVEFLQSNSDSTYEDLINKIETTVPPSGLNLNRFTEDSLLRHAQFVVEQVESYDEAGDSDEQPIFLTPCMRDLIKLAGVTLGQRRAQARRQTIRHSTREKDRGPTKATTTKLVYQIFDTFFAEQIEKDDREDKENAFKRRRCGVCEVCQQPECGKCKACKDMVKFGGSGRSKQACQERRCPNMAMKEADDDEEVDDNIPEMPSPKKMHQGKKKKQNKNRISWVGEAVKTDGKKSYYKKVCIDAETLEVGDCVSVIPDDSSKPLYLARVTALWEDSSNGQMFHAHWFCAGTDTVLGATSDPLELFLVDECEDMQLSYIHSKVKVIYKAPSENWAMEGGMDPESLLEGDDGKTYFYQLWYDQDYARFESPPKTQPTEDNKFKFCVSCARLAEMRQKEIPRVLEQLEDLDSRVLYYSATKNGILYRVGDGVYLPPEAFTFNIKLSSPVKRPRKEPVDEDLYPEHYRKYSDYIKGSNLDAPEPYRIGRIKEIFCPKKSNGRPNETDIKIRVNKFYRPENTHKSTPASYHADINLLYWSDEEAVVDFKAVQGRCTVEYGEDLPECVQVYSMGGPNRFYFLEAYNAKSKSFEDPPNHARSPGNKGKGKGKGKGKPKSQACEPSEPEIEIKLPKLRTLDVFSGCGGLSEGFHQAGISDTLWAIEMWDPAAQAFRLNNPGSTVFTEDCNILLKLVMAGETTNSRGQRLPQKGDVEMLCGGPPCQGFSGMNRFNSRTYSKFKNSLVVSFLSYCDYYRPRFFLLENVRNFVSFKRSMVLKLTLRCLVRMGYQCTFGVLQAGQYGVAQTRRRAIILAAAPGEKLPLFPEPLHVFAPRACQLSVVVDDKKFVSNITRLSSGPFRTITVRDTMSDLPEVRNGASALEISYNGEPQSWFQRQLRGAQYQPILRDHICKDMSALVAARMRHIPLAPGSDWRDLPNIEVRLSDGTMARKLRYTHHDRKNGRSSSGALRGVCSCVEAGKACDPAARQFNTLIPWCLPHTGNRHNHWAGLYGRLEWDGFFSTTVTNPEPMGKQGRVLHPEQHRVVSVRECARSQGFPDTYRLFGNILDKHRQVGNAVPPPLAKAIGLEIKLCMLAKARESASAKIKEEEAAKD

In the case of `CCc1c(C#N)c(SC(C(N)=O)c2ccccc2)nc(N2CC[C@@H](OP(=O)(O)O)C2)c1C#N` (stereo partly drawn) [Example 416, (3R)-1-(6-((2-amino-2-oxo-1-phenylethyl)thio)-3,5-dicyano-4-ethylpyridin-2-yl)pyrrolidin-3-yl dihydrogen phosphate], the IC50 at DNMT1 (setting [2]) is 1000 to 31600 nM. Further, the EC50 in test [1] was 1000 to 31600 nM.

Turning to `COc1c(C#N)c(SC(C(N)=O)c2ccccc2)nc(N2CCC(N)CC2)c1C#N` (stereo not shown) [Example 693, 2-((6-(4-aminopiperidin-1-yl)-3,5-dicyano-4-methoxypyridin-2-yl)thio)-2-phenylacetamide 2,2,2-trifluoroacetate], the “DNMT1 BioChemical (pIC50 category)” value on DNMT1 (setting [3]) was “D (Category D: ≥6.5)”. Moreover, the EC50 in test [1] is under 316 nM.

For `CCc1c(C#N)c(SC(C(N)=O)c2ccccc2)nc(N2CCC3(COC3)C2)c1C#N` (stereo not shown) [Example 161, 2-((3,5-Dicyano-4-ethyl-6-(2-oxa-6-azaspiro[3.4]octan-6-yl)pyridin-2-yl)thio)-2-phenylacetamide], the IC50 on DNMT1 (setting [2]) was 316 to 1000 nM. Further, the EC50 in test [1] is 1000 to 31600 nM.

As to `CCc1c(C#N)c(SC(C(N)=O)c2ccc(C)cn2)nc(N2CCCN(C)CC2)c1C#N` (stereo not shown) [Example 205, 2-((3,5-Dicyano-4-ethyl-6-(4-methyl-1,4-diazepan-1-yl)pyridin-2-yl)thio)-2-(5-methylpyridin-2-yl)acetamide], on DNMT1 (setting [3]), the “DNMT1 BioChemical (pIC50 category)” value is “D (Category D: ≥6.5)”. Besides, the EC50 in test [1] is under 316 nM.

Regarding `CCc1c(C#N)c(SC(C(N)=O)c2ccccc2)nc(N2CCC(NC(=O)[C@@H](N)CO)CC2)c1C#N` (stereo partly shown) [Example 399], on DNMT1 (setting [3]), the “DNMT1 BioChemical (pIC50 category)” value was “D (Category D: ≥6.5)”. In test [1], the EC50 was 1000 to 31600 nM.

In the case of `CCc1c(C#N)c(SCc2ccc(N)c(F)c2)nc(N2CCCN(C)CC2)c1C#N` [Example 360, 2-((4-Amino-3-fluorobenzyl)thio)-4-ethyl-6-(4-methyl-1,4-diazepan-1-yl)pyridine-3,5-dicarbonitrile], at DNMT1 (setting [2]), the IC50 is 316 to 1000 nM. In test [1], the EC50 is 1000 to 31600 nM.

In the case of `CCc1c(C#N)c(SC(C(N)=O)c2ccccc2)nc(N(C)CCN2CC[C@@H](O)C2)c1C#N` (stereo partly drawn) [Example 494, 2-(3,5-dicyano-4-ethyl-6-((2-((R)-3-hydroxypyrrolidin-1-yl)ethyl)(methyl)amino)pyridin-2-ylthio)-2-phenylacetamide], at DNMT1 (setting [3]), the “DNMT1 BioChemical (pIC50 category)” value is “D (Category D: ≥6.5)”. For the same molecule, the EC50 in test [1] is under 316 nM.

For the molecule `CCc1c(C#N)c(SC(C(N)=O)c2ccccc2)nc(N2CCC(NC)CC2)c1C#N` (stereo not shown) [Example 547, 2-((3,5-dicyano-4-ethyl-6-(4-(methylamino)piperidin-1-yl)pyridin-2-yl)thio)-2-phenylacetamide], the “DNMT1 BioChemical (pIC50 category)” value on DNMT1 (setting [3]) was “D (Category D: ≥6.5)”. Further, in test [1], the EC50 is under 316 nM.

Take `CCc1c(C#N)c(SC(C(N)=O)c2ccccc2)nc(N2CCC(C3CCNC3)CC2)c1C#N` (stereo not shown) [Example 121, 2-((3,5-Dicyano-4-ethyl-6-(4-(pyrrolidin-3-yl)piperidin-1-yl)pyridin-2-yl)thio)-2-phenylacetamide; 2,2,2-trifluoroacetic acid]: on DNMT1 (setting [3]), the “DNMT1 BioChemical (pIC50 category)” value is “D (Category D: ≥6.5)”. For the same molecule, at DNMT1 (breaklight assay and/or SPA assay, repeated experimental runs), the “average pIC50 against DNMT1” value is reported as over 6.5. Moreover, in test [1], the EC50 was 316 to 1000 nM.

With `CCc1c(C#N)c(SCc2ccc3c(c2)C(=O)C(=O)N3)nc(N2CCCN(C)CC2)c1C#N` [Example 348, 2-(((2,3-Dioxoindolin-5-yl)methyl)thio)-4-ethyl-6-(4-methyl-1,4-diazepan-1-yl)pyridine-3,5-dicarbonitrile], on DNMT1 (setting [2]), the IC50 is 316 to 1000 nM. Moreover, the EC50 in test [1] was over 31600 nM.

Turning to `CCc1c(C#N)c(SCc2ccc(CNC(C)=O)cc2)nc(N(C)CCOC(=O)[C@@H](N)C(C)C)c1C#N` [Example 267], at DNMT1 (setting [2]), the IC50 was 1000 to 31600 nM. For the same molecule, the EC50 in test [1] is 1000 to 31600 nM.

Take `CCc1c(C#N)c(SC(C(N)=O)c2ccccc2)nc(N(C)CC(=O)N2CCO[C@H](CO)C2)c1C#N` (stereo partly drawn) [Example 646, 2-((3,5-dicyano-4-ethyl-6-((2-((S)-2-(hydroxymethyl)morpholino)-2-oxoethyl)(methyl)amino)pyridin-2-yl)thio)-2-phenylacetamide]: the “DNMT1 BioChemical (pIC50 category)” value on DNMT1 (setting [3]) is listed as “D (Category D: ≥6.5)”. In addition, the EC50 in test [1] is under 316 nM.

Regarding `CCc1c(C#N)c(SC(C(N)=O)c2ccccc2)nc(N2CCN(Cc3cc[nH]c3)CC2)c1C#N` (stereo not shown) [Example 182, 2-((6-(4-((1H-Pyrrol-3-yl)methyl)piperazin-1-yl)-3,5-dicyano-4-ethylpyridin-2-yl)thio)-2-phenylacetamide], the IC50 on DNMT1 (setting [2]) is 316 to 1000 nM. Moreover, in test [1], the EC50 was 316 to 1000 nM.

Regarding `COc1c(C#N)c(SCc2ccc(N(C)S(C)(=O)=O)cc2)nc(N2CCC(N)CC2)c1C#N` [Example 683, N-(4-(((6-(4-aminopiperidin-1-yl)-3,5-dicyano-4-methoxypyridin-2-yl)thio)methyl)phenyl)-N-methylmethanesulfonamide hydrochloride], on DNMT1 (setting [3]), the “DNMT1 BioChemical (pIC50 category)” value was “D (Category D: ≥6.5)”. On DNMT1 (setting [4]), the IC50 was 316 to 1000 nM and 316 nM. Besides, the EC50 in test [1] is under 316 nM.

On to `CCc1c(C#N)c(SC(C(N)=O)c2ccccc2)nc(N2CCC(N3[C@H](C)CC[C@@H]3C)CC2)c1C#N` (stereo partly drawn) [Example 452, 2-((3,5-dicyano-6-(4-((2R,5S)-2,5-dimethylpyrrolidin-1-yl)piperidin-1-yl)-4-ethylpyridin-2-yl)thio)-2-phenylacetamide], for which the “DNMT1 BioChemical (pIC50 category)” value at DNMT1 (setting [3]) was “D (Category D: ≥6.5)”. In addition, the EC50 in test [1] is under 316 nM.

With `CCc1c(C#N)c(SCc2ccc(CNC(C)=O)cc2)nc(N2CCC(N)CC2)c1C#N` [Example 156, N-(4-(((6-(4-Aminopiperidin-1-yl)-3,5-dicyano-4-ethylpyridin-2-yl)thio)methyl)benzyl)acetamide, Trifluoroacetic Acid Salt], the “DNMT1 BioChemical (pIC50 category)” value on DNMT1 (setting [3]) is reported as “D (Category D: ≥6.5)”. For the same molecule, the EC50 in test [1] is 316 to 1000 nM.

On to `CCc1c(C#N)c(SC(C(N)=O)c2ccccc2)nc(N(C)CC(=O)N2CCOCC2)c1C#N` (stereo not shown) [Example 623, 2-((3,5-dicyano-4-ethyl-6-(methyl(2-morpholino-2-oxoethyl)amino)pyridin-2-yl)thio)-2-phenylacetamide], for which the “DNMT1 BioChemical (pIC50 category)” value at DNMT1 (setting [3]) is “D (Category D: ≥6.5)”. The EC50 in test [1] was under 316 nM.

Turning to `CCc1c(C#N)c(SC(C(N)=O)c2ccccc2)nc(N(C)CCNC)c1C#N` (stereo not shown) [Example 470, 2-((3,5-dicyano-4-ethyl-6-(methyl(2-(methylamino)ethyl)amino)pyridin-2-yl)thio)-2-phenylacetamide], the “DNMT1 BioChemical (pIC50 category)” value at DNMT1 (setting [3]) is recorded as “D (Category D: ≥6.5)”. Besides, in test [1], the EC50 is under 316 nM.

On to `CCc1c(C#N)c(SC(C(N)=O)c2ccccc2)nc(N(C)CC(=O)N2C[C@@H](O)[C@@H](O)C2)c1C#N` (stereo partly drawn) [Example 647, 2-((3,5-dicyano-6-((2-((cis)-3,4-dihydroxypyrrolidin-1-yl)-2-oxoethyl)(methyl)amino)-4-ethylpyridin-2-yl)thio)-2-phenylacetamide], for which, on DNMT1 (setting [3]), the “DNMT1 BioChemical (pIC50 category)” value is “D (Category D: ≥6.5)”. For the same molecule, in test [1], the EC50 is 316 to 1000 nM.

For the molecule `CCc1c(C#N)c(SC(C(N)=O)c2ccccc2)nc(N(C)CC(=O)N(C)CCCO)c1C#N` (stereo not shown) [Example 665, 2-((6-((2-amino-2-oxo-1-phenylethyl)thio)-3,5-dicyano-4-ethylpyridin-2-yl)(methyl)amino)-N-(3-hydroxypropyl)-N-methylacetamide], at DNMT1 (setting [3]), the “DNMT1 BioChemical (pIC50 category)” value is recorded as “D (Category D: ≥6.5)”. In addition, the EC50 in test [1] was under 316 nM.

As to `CCc1c(C#N)c(SCc2ccc(/C=C/C(=O)O)cc2)nc(N(C)C)c1C#N` [Example 102, (E)-3-(4-(((3,5-Dicyano-6-(dimethylamino)-4-ethylpyridin-2-yl)thio)methyl)phenyl)acrylic acid, Trifluoroacetic Acid Salt], the results for the IC50 on DNMT1 (setting [2]) and on DNMT1 (setting [4]) were 1000 to 31600 nM and at least 1000 nM, respectively. In addition, the EC50 in test [1] was over 31600 nM.

As for `CCc1c(C#N)c(SC(C(N)=O)c2ccccc2)nc(N2CC[C@H](ONC(=N)N)C2)c1C#N` (stereo partly drawn) [Example 625, 2-((3,5-dicyano-4-ethyl-6-((S)-3-(guanidinooxy)pyrrolidin-1-yl)pyridin-2-yl)thio)-2-phenylacetamide], at DNMT1 (setting [3]), the “DNMT1 BioChemical (pIC50 category)” value is “D (Category D: ≥6.5)”. The EC50 in test [1] is under 316 nM.

Consider `CCc1c(C#N)c(SCc2cnn(CC(O)CO)c2)nc(N2CCC(N)CC2)c1C#N` (stereo not shown) [Example 380, 2-(4-Aminopiperidin-1-yl)-6-(((1-(2,3-dihydroxypropyl)-1H-pyrazol-4-yl)methyl)thio)-4-ethylpyridine-3,5-dicarbonitrile, Hydrochloride], for which the IC50 at DNMT1 (setting [2]) is 316 to 1000 nM. Further, the EC50 in test [1] is 1000 to 31600 nM.

With `CCc1c(C#N)c(SCc2ccc(N(C)S(C)(=O)=O)cc2)nc(N2CCC(N3CCCC3)CC2)c1C#N` [Example 582, N-(4-(((3,5-dicyano-4-ethyl-6-(4-(pyrrolidin-1-yl)piperidin-1-yl)pyridin-2-yl)thio)methyl)phenyl)-N-methylmethanesulfonamide], at DNMT1 (setting [3]), the “DNMT1 BioChemical (pIC50 category)” value is listed as “D (Category D: ≥6.5)”. For the same molecule, the EC50 in test [1] is under 316 nM.

As for `CCc1c(C#N)c(SCc2ccc(N(C)S(C)(=O)=O)cc2)nc(N(C)CCN(C)C)c1C#N` [Example 482, N-(4-(((3,5-dicyano-6-((2-(dimethylamino)ethyl)(methyl)amino)-4-ethylpyridin-2-yl)thio)methyl)phenyl)-N-methylmethanesulfonamide], on DNMT1 (setting [3]), the “DNMT1 BioChemical (pIC50 category)” value is listed as “D (Category D: ≥6.5)”. In test [1], the EC50 was under 316 nM.

`CCc1c(C#N)c(SCc2ccc(CNC(=O)[C@@H](C)N)cc2)nc(N2CCCN(C)CC2)c1C#N` [Example 98, (R)-2-Amino-N-(4-(((3,5-dicyano-4-ethyl-6-(4-methyl-1,4-diazepan-1-yl)pyridin-2-yl)thio)methyl)benzyl)propanamide]: the “DNMT1 BioChemical (pIC50 category)” value at DNMT1 (setting [3]) was “D (Category D: ≥6.5)”. Moreover, the EC50 in test [1] is over 31600 nM.
